US10206937B2, “Boronic acid derivatives and therapeutic uses thereof” (Qpex Biopharma, Inc., priority 2014, dated 2019)

System: strains of Enterobacteriaceae producing various carbapenemases (class A, D and B; 104 strains)
Assay: Antibiotics potentiation by Compound 27 (MIC; meropenem, doripenem, ertapenem, cefepime)
Type: cell-based
Details: + 27 = with Compound 27 at fixed 4 μg/ml

With `C[C@@H](O)[C@H]1C(=O)N2C(C(=O)O)=C(S[C@@H]3CN[C@H](C(=O)N(C)C)C3)[C@H](C)[C@H]12` [M] the MIC (strain CF1012 Citrobacter freundii (KPC-2)) was “Y (MIC of 1 μg/mL to 10 μg/mL)”, the MIC (strain CF1021 Citrobacter freundii (CMY-type; VIM-1)) was “Y (MIC of 1 μg/mL to 10 μg/mL)” and the MIC (strain CF1022 Citrobacter freundii (SHV-12(2be), TEM-OSBL(2b); IMP-8)) was “Y (MIC of 1 μg/mL to 10 μg/mL)”. The MIC (strain CF1023 Citrobacter freundii (SHV-12(2be), TEM-OSBL(2b); CTX-M-3; CMY-34; NDM-1)) was “Z (MIC of greater than 10 μg/mL)”, the MIC (strain CL1080 Enterobacter cloacae (IMP-1)) was “Y (MIC of 1 μg/mL to 10 μg/mL)” and the MIC (strain EA1019 Enterobacter aerogenes (SHV-5, VIM-1)) was “Z (MIC of greater than 10 μg/mL)”. For the same molecule, the MIC (strain EC1007 Escherichia coli (KPC-3)) was “X (MIC of less than 1 μg/mL)”, the MIC (strain EC1061 Escherichia coli (NDM-1, CMY-6)) was “Z (MIC of greater than 10 μg/mL)” and the MIC (strain EC1062 Escherichia coli (OXA-48, CTX-M-15)) was “X (MIC of less than 1 μg/mL)”. For the same molecule, the MIC (strain EC1064 Escherichia coli (NDM-1, CMY-6, CTX-M-15)) was “Z (MIC of greater than 10 μg/mL)”, the MIC (strain EC1065 Escherichia coli (IMP-1)) was “Y (MIC of 1 μg/mL to 10 μg/mL)” and the MIC (strain EC1068 Escherichia coli (VIM-1)) was “Z (MIC of greater than 10 μg/mL)”. For the same molecule, the MIC (strain EC1069 Escherichia coli (CTX-M-27; NDM-1)) was “Z (MIC of greater than 10 μg/mL)”, the MIC (strain EC1070 Escherichia coli (TEM-OSBL(2b); CMY-42; NDM-5)) was “Z (MIC of greater than 10 μg/mL)” and the MIC (strain EC1072 Escherichia coli (CTX-M-3; NDM-1)) was “Z (MIC of greater than 10 μg/mL)”. For the same molecule, the MIC (strain ECL1004 Enterobacter cloacae (NMC-A)) was “Y (MIC of 1 μg/mL to 10 μg/mL)”, the MIC (strain ECL1026 Enterobacter cloacae (KPC-2, TEM-1)) was “Y (MIC of 1 μg/mL to 10 μg/mL)” and the MIC (strain ECL1036 Enterobacter cloacae (KPC-3, TEM-1)) was “Y (MIC of 1 μg/mL to 10 μg/mL)”. For the same molecule, the MIC (strain ECL1045 Enterobacter cloacae (VIM-1)) was “Y (MIC of 1 μg/mL to 10 μg/mL)”, the MIC (strain ECL1055 Enterobacter cloacae (KPC-3, TEM)) was “Y (MIC of 1 μg/mL to 10 μg/mL)” and the MIC (strain ECL1057 Enterobacter cloacae (NDM-1, TEM-1, CTX-M-15)) was “Z (MIC of greater than 10 μg/mL)”. The MIC (strain ECL1058 Enterobacter cloacae (KPC-3, SHV-11, TEM-1)) was “Z (MIC of greater than 10 μg/mL)”, the MIC (strain ECL1059 Enterobacter cloacae (KPC-3, SHV-12, TEM-1)) was “Y (MIC of 1 μg/mL to 10 μg/mL)” and the MIC (strain ECL1061 Enterobacter cloacae (KPC-3, Hyper AmpC expression)) was “Z (MIC of greater than 10 μg/mL)”. The MIC (strain ECL1082 Enterobacter cloacae (VIM-1)) was “Z (MIC of greater than 10 μg/mL)”, the MIC (strain ECL1084 Enterobacter cloacae (CTX-M-15; ACT-16; NDM-1)) was “Z (MIC of greater than 10 μg/mL)” and the MIC (strain ECL1085 Enterobacter cloacae (SHV-31(2be), TEM-1(2b); CTX-M-15; NDM-1)) was “Z (MIC of greater than 10 μg/mL)”. For the same molecule, the MIC (strain ECL1086 Enterobacter cloacae (VIM-31, OXA-48(c))) was “Y (MIC of 1 μg/mL to 10 μg/mL)”, the MIC (strain ECL1087 Enterobacter cloacae (VIM-1)) was “Z (MIC of greater than 10 μg/mL)” and the MIC (strain ECL1088 Enterobacter cloacae (TEM-1(2b); CTX-M-14; ACT-type; VIM-1)) was “Z (MIC of greater than 10 μg/mL)”. For the same molecule, the MIC (strain ECL1089 Enterobacter cloacae (ACT-type; IMP-1)) was “Z (MIC of greater than 10 μg/mL)”, the MIC (strain ECL1090 Enterobacter cloacae (TEM-1(2b); CTX-M-22; ACT-type; IMP-8)) was “Y (MIC of 1 μg/mL to 10 μg/mL)” and the MIC (strain ECL1091 Enterobacter cloacae (VIM-1)) was “Z (MIC of greater than 10 μg/mL)”. For the same molecule, the MIC (strain ECL1092 Enterobacter cloacae (TEM-OSBL(2b); ACT-32; VIM-1)) was “Y (MIC of 1 μg/mL to 10 μg/mL)”, the MIC (strain ECL1093 Enterobacter cloacae (TEM-OSBL(2b); ACT-32; VIM-1)) was “Y (MIC of 1 μg/mL to 10 μg/mL)” and the MIC (strain ECL1094 Enterobacter cloacae (VIM-1)) was “Z (MIC of greater than 10 μg/mL)”. The MIC (strain ECL1096 Enterobacter cloacae (CMY-4, VIM-4, OXA-48(c))) was “Y (MIC of 1 μg/mL to 10 μg/mL)”, the MIC (strain ECL1097 Enterobacter cloacae (SHV-31(2be), TEM-OSBL(2b); CTX-M-15; ACT-31; NDM-1)) was “Z (MIC of greater than 10 μg/mL)” and the MIC (strain ECL1098 Enterobacter cloacae (TEM-OSBL(2b); DHA-1; ACT-16; NDM-1)) was “Z (MIC of greater than 10 μg/mL)”. For the same molecule, the MIC (strain KP1001 Klebsiella pneumoniae (KPC TEM SHV)) was “Z (MIC of greater than 10 μg/mL)”, the MIC (strain KP1002 Klebsiella pneumoniae (KPC TEM SHV)) was “Y (MIC of 1 μg/mL to 10 μg/mL)” and the MIC (strain KP1003 Klebsiella pneumoniae (KPC TEM SHV)) was “Y (MIC of 1 μg/mL to 10 μg/mL)”. The MIC (strain KP1004 Klebsiella pneumoniae (KPC-2, TEM-1, SHV-11)) was “Z (MIC of greater than 10 μg/mL)”, the MIC (strain KP1008 Klebsiella pneumoniae (KPC-2)) was “Y (MIC of 1 μg/mL to 10 μg/mL)” and the MIC (strain KP1014 Klebsiella pneumoniae (VIM-1, TEM, SHV)) was “Y (MIC of 1 μg/mL to 10 μg/mL)”. The MIC (strain KP1054 Klebsiella pneumoniae (VIM-1, SHV-11)) was “Z (MIC of greater than 10 μg/mL)”, the MIC (strain KP1059 Klebsiella pneumoniae (VIM-1, SHV-11)) was “Z (MIC of greater than 10 μg/mL)” and the MIC (strain KP1061 Klebsiella pneumoniae (KPC-3, SHV-11, TEM-1)) was “Z (MIC of greater than 10 μg/mL)”. For the same molecule, the MIC (strain KP1064 Klebsiella pneumoniae (KPC-2, SHV-11, TEM-1)) was “Z (MIC of greater than 10 μg/mL)”, the MIC (strain KP1065 Klebsiella pneumoniae (VIM-1, SHV-11)) was “Y (MIC of 1 μg/mL to 10 μg/mL)” and the MIC (strain KP1070 Klebsiella pneumoniae (KPC-2, SHV-11, TEM-1)) was “Z (MIC of greater than 10 μg/mL)”. The MIC (strain KP1074 Klebsiella pneumoniae (KPC-3, SHV-11, TEM)) was “Z (MIC of greater than 10 μg/mL)”.
